Test results published in ChEMBL document CHEMBL1201862, “PubChem BioAssay data set” (2004).
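All cell lines were grown in 96-well plates and treated with compound for 48 hours. GI50 marks 50% less growth.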 Calls of active or inactive are those of the source. Rule as the data show it: active = GI50 up to about 1.1 µM and inactive = higher.

Key:
Assay in all cases: DTP human tumour cell line panel, 48 h
[1] = tested on: DU-145
[2] = tested on: SNB-75
[3] = tested on: BT-549
[4] = tested on: CCRF-CEM
[5] = tested on: EKVX
[6] = tested on: NCI-H522
[7] = tested on: K562
[8] = tested on: CAKI-1
[9] = tested on: UACC-257
[10] = tested on: HCT-116
[11] = tested on: SK-MEL-5
[12] = tested on: PC-3
[13] = tested on: MOLT-4
[14] = tested on: A498
[15] = tested on: SF-268
[16] = tested on: Hs-578T
[17] = tested on: KM12
[18] = tested on: OVCAR-4
[19] = tested on: U-251
[20] = tested on: HL-60
[21] = tested on: MDA-MB-231
[22] = tested on: NCI-H23
[23] = tested on: OVCAR-3
[24] = tested on: Malme-3M
[25] = tested on: SF-295
[26] = tested on: HOP-62
[27] = tested on: SK-MEL-2
[28] = tested on: MCF7
[29] = tested on: RPMI-8226
[30] = tested on: M14
[31] = tested on: NCI/ADR-RES
[32] = tested on: COLO 205
[33] = tested on: IGROV-1
[34] = tested on: SW-620
[35] = tested on: 786-0
[36] = tested on: RXF 393
[37] = tested on: SN12C
[38] = tested on: UACC-62
[39] = tested on: T47D
[40] = tested on: HT-29
[41] = tested on: SK-OV-3
[42] = tested on: HOP-92
[43] = tested on: MDA-MB-435
[44] = tested on: ACHN
[45] = tested on: OVCAR-8
[46] = tested on: SK-MEL-28
[47] = tested on: HCC 2998
[48] = tested on: OVCAR-5
[49] = tested on: LOX IMVI
[50] = tested on: HCT-15
[51] = tested on: A549
[52] = tested on: SF-539
[53] = tested on: SNB-19
[54] = tested on: TK-10
[55] = tested on: NCI-H226
[56] = tested on: SR
[57] = tested on: NCI-H460
[58] = tested on: UO-31

SMILES: CC1CC[C@@]2(OC1)OC1C[C@H]3[C@@H]4CC=C5CC(OC6OC(CO)C(OC7OC(CO)C(O)C(OC8OCC(O)C(O)C8O)C7OC7OC(CO)C(O)C(O)C7O)C(O)C6O)CCC5(C)[C@H]4CCC3(C)C1[C@@H]2C (stereo not given in full)
- GI50 [1]: 4.86 µM (inactive)
- GI50 [2]: 7.69 µM (inactive)
- GI50 [3]: 4.38 µM (inactive)
- GI50 [4]: 5.16 µM (inactive)
- GI50 [5]: 4.67 µM (inactive)
- GI50 [6]: 4.72 µM (inactive)
- GI50 [7]: 7.23 µM (inactive)
- GI50 [8]: 4.95 µM (inactive)
- GI50 [9]: 6.47 µM (inactive)
- GI50 [10]: 4.44 µM (inactive)
- GI50 [11]: 4.67 µM (inactive)
- GI50 [12]: 4.06 µM (inactive)
- GI50 [13]: 9.18 µM (inactive)
- GI50 [14]: 4.69 µM (inactive)
- GI50 [15]: 4.84 µM (inactive)
- GI50 [16]: 4.66 µM (inactive)
- GI50 [17]: 5.32 µM (inactive)
- GI50 [18]: 6.58 µM (inactive)
- GI50 [19]: 4.68 µM (inactive)
- GI50 [20]: 4.9 µM (inactive)
- GI50 [21]: 4.66 µM (inactive)
- GI50 [22]: 5.64 µM (inactive)
- GI50 [23]: 4.93 µM (inactive)
- GI50 [24]: > 25 µM (inactive)
- GI50 [25]: 7.11 µM (inactive)
- GI50 [26]: 4.09 µM (inactive)
- GI50 [27]: 11.7 µM (inactive)
- GI50 [28]: 6.3 µM (inactive)
- GI50 [29]: 6.81 µM (inactive)
- GI50 [30]: 11.2 µM (inactive)
- GI50 [31]: 5.97 µM (inactive)
- GI50 [32]: 4.59 µM (inactive)
- GI50 [33]: 3.94 µM (inactive)
- GI50 [34]: 3.98 µM (inactive)
- GI50 [35]: 5.9 µM (inactive)
- GI50 [36]: 4.76 µM (inactive)
- GI50 [37]: 4.58 µM (inactive)
- GI50 [38]: 21.7 µM (inactive)
- GI50 [39]: 5.71 µM (inactive)
- GI50 [40]: 5.08 µM (inactive)
- GI50 [41]: 6.55 µM (inactive)
- GI50 [42]: > 25 µM (inactive)
- GI50 [43]: 5.78 µM (inactive)
- GI50 [44]: 4.97 µM (inactive)
- GI50 [45]: 4.61 µM (inactive)
- GI50 [46]: 12.3 µM (inactive)
- GI50 [47]: 4.68 µM (inactive)
- GI50 [48]: 8.51 µM (inactive)
- GI50 [49]: 4.48 µM (inactive)
- GI50 [50]: 14.9 µM
- GI50 [51]: 4.38 µM (inactive)
- GI50 [52]: 3.6 µM (inactive)
- GI50 [53]: 10.3 µM (inactive)
- GI50 [54]: 7.43 µM (inactive)
- GI50 [55]: 13.3 µM (inactive)
- GI50 [56]: 7.23 µM (inactive)
- GI50 [57]: 5.52 µM (inactive)

SMILES: N=c1oc2ccccc2cc1C(=O)Nc1nccs1
- GI50 [1]: 20.9 µM (inactive)
- GI50 [2]: 35.6 µM (inactive)
- GI50 [3]: 39.5 µM (inactive)
- GI50 [4]: 2.79 µM (inactive)
- GI50 [5]: 25.1 µM (inactive)
- GI50 [6]: 0.647 µM (active)
- GI50 [7]: 13.9 µM (inactive)
- GI50 [58]: 0.031 µM (active)
- GI50 [8]: 13.4 µM (inactive)
- GI50 [9]: 27 µM (inactive)
- GI50 [10]: 26.8 µM (inactive)
- GI50 [11]: 31 µM (inactive)
- GI50 [12]: 34.5 µM (inactive)
- GI50 [13]: 4.8 µM (inactive)
- GI50 [14]: 45.7 µM (inactive)
- GI50 [15]: 47.3 µM (inactive)
- GI50 [16]: 46.3 µM (inactive)
- GI50 [17]: 34.3 µM (inactive)
- GI50 [18]: 20.5 µM (inactive)
- GI50 [19]: 33 µM (inactive)
- GI50 [20]: 0.91 µM (active)
- GI50 [21]: 33.7 µM (inactive)
- GI50 [22]: 35.8 µM (inactive)
- GI50 [23]: 9.31 µM (inactive)
- GI50 [24]: 35.6 µM (inactive)
- GI50 [25]: 35.6 µM (inactive)
- GI50 [26]: 18.8 µM (inactive)
- GI50 [27]: 26.9 µM (inactive)
- GI50 [28]: 5.7 µM (inactive)
- GI50 [29]: 14.1 µM (inactive)
- GI50 [30]: 19 µM (inactive)
- GI50 [31]: 19.7 µM (inactive)
- GI50 [32]: 14.6 µM (inactive)
- GI50 [33]: 8.26 µM (inactive)
- GI50 [34]: 19.9 µM (inactive)
- GI50 [35]: 2.37 µM (inactive)
- GI50 [36]: 17.5 µM (inactive)
- GI50 [37]: 46.9 µM (inactive)
- GI50 [38]: 32.2 µM (inactive)
- GI50 [39]: 14.1 µM (inactive)
- GI50 [40]: 46.6 µM (inactive)
- GI50 [41]: 7.78 µM (inactive)
- GI50 [42]: 32.5 µM (inactive)
- GI50 [43]: 25.8 µM (inactive)
- GI50 [44]: 4.54 µM (inactive)
- GI50 [45]: 16.8 µM (inactive)
- GI50 [46]: 44.5 µM (inactive)
- GI50 [47]: 35.2 µM (inactive)
- GI50 [48]: > 69.3 µM (inactive)
- GI50 [49]: 2.33 µM (inactive)
- GI50 [50]: 24.8 µM
- GI50 [51]: 44.6 µM (inactive)
- GI50 [52]: 5.75 µM (inactive)
- GI50 [53]: 52.2 µM (inactive)
- GI50 [54]: 7.85 µM (inactive)
- GI50 [55]: 19.7 µM (inactive)
- GI50 [56]: 3.24 µM (inactive)
- GI50 [57]: 26.7 µM (inactive)
